# Test results: the METLIN SMRT retention time set (Domingo-Almenara et al. 2019)
# Experiment: gradient 5% acetonitrile 3 min, to 50% in 2 min, to 85% in 15 min, held 3 min, 100 µL/min
# Conditions: column: Zorbax Extend-C18 2.1 x 50 mm; eluents: water / acetonitrile, 0.1% formic acid
# Outline: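 Values are retention times taken from adduct peaks that software picked and an analyst inspected. The pure standards were run as mixtures of ~100 molecules on HPLC linked to a quadrupole time-of-flight mass spectrometer, in positive and negative ionization mode. A Zorbax Extend-C18 column (2.1 × 50 mm, 1.8 μm) was used at 100 μL/min with water and acetonitrile, each including 0.1% formic acid.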
row,Structure (SMILES),RP-LC retention time [s]
1,Cc1nc(-c2ccc3c(c2)n(CC(=O)NC2CCCCC2)c(=O)n3C(C)C)no1,857
2,O=C(NCCN1CCCC1)C1CCN(c2nccnc2Sc2ccccc2)CC1,645
3,COc1ccc(NC(=O)N2CCC(n3cnc4cccnc43)CC2)c(OC)c1,633
4,CN(Cc1cccnc1)C(=O)c1c(OCC2CC2)cc(=O)n2c1CCCCC2,587
5,O=C(CSCc1ccccc1)Nc1cc(=O)[nH]c(=O)[nH]1,629
6,CCc1ccc(C(=O)c2cnc3ccc(OC)cc3c2N2CCN(CC)CC2)cc1,619
7,O=C(c1cc2c(s1)CCC(C(=O)N1CCN(C3CCCC3)CC1)C2)N1CCCC1 (stereo not given),606
8,Fc1cccc(-c2noc(-c3cc(N4CCOCC4)nc4ccccc34)n2)c1,1240
9,CSc1ccccc1C(=O)N(CCc1ccccc1)Cc1ccccn1,762
10,Cc1nc2cc(-c3noc(C4(c5ccccc5)CC4)n3)ccc2o1,1110
11,COc1cccc(N2CCN(C(=O)CN3CCN(Cc4ccccc4)C(=O)C3=O)CC2)c1,726
12,CCn1cc(C(=O)NCc2ccccn2)c(S(=O)(=O)N2CCSCC2)n1,647
13,COc1cc(Cn2c(N)c(C#N)c3nc4ccccc4nc32)cc(OC)c1OC,720
14,Cc1cc(C)nc(SCc2ccc(C(=O)NCCc3c[nH]c4ccccc34)o2)n1,894
15,CC(=O)Nc1ccc(S(=O)(=O)N2CCCC2c2nc(-c3ccc(F)cc3)no2)cc1Cl (stereo not given),990
16,CCCn1ccc2sc(C)c(C(=O)NCc3ccccc3F)c2c1=O,908
17,O=C(Cn1cccc(-c2nc(-c3ccc(Br)cc3)no2)c1=O)NCc1ccccc1,939
18,COC(=O)c1sccc1NC(=O)N1CCc2c([nH]c3ccccc23)C1c1ccc(F)cc1 (stereo not given),1300
19,Cc1nc(-c2csc(S(=O)(=O)N3CCC(C(=O)Nc4ccc(F)cc4)CC3)c2)no1,916
20,CNC(=O)N1CCCC(Cn2cnc3cccnc32)C1 (stereo not given),574
21,O=C(NC1CCCCC1)c1nnc(-c2ccc(S(=O)(=O)N3CCCC3)cc2)o1,952
22,Cc1[nH]c2ccccc2c1C(=O)C(=O)NCC1COc2ccccc2O1 (stereo not given),832
23,Cn1cc(-c2nc(C(=O)Nc3ccc(Cl)cc3F)cs2)c2cccnc21,1260

row,Structure (SMILES),RP-LC retention time [s]
1,Cc1cccc(NC(=O)N2CCC(n3cnc4ccc(C)cc4c3=O)CC2)c1,836
2,Cn1nc(CNC(=O)c2n[nH]c(=O)c3ccccc23)c2c1CCN(S(C)(=O)=O)C2,609
3,O=C(NCCc1c[nH]c2ccc(F)cc12)c1cncc(Br)c1,796
4,COc1ccc(N2CCN(C(=O)Cn3nc4nc(N5CCCC5)ccn4c3=O)CC2)cc1,639
5,CC1=C(c2ccc(C)c(C)c2)S(=O)(=O)N=C1N1CCCN(C(=O)NCCC(C)C)CC1,906
6,COc1ccc(NC(=O)C2CCN(S(=O)(=O)c3cc(-c4noc(C)n4)cs3)CC2)c(OC)c1,885
7,COc1ccc(-n2c(=O)n(C)c(=O)c3cc(C(=O)Nc4ccc(C)cc4F)cnc32)cc1,849
8,CC(C)CCNC(=O)c1ccc(Cn2c(C(F)(F)F)nc3cccnc32)cc1,905
9,COc1ccccc1N1CCN(CC(=O)NC2CCSC2=O)C1=O (stereo not given),621
10,COCCN1CCC(N2CCN(S(=O)(=O)c3cccc(Br)c3)CC2)C1=O (stereo not given),612
11,CCOC(=O)c1cnc(N2CCN(c3ccccn3)CC2)c2ccccc12,692
12,O=C(Nc1ccccc1-c1nc2ccccc2s1)c1c(F)cccc1F,1270
13,CCCCn1c(=O)c2ccccc2n(Cc2nc(-c3ccccc3C)no2)c1=O,1240
14,COc1ccc(C2CC(=O)N(c3ccc(F)c(C)c3)C(=O)C2)cc1,930
15,Cc1ccc(C(=O)N2CCN(c3nc(CN4CCOCC4)cs3)CC2)cc1,651
16,CCCN(Cc1ccc(OC)cc1)Cc1cc(=O)n2cccc(C)c2n1,644
17,COCc1cc2nn(CC(=O)NC3CCCC3)c(=O)n2c(-c2ccccc2)n1,727
18,CC(CN(CCS(=O)(=O)N1CCNCC1)C(=O)c1ccc(Br)cc1)c1ccccc1 (stereo not given),735
19,Cc1ccc(S(=O)(=O)N2C(=O)CCC2C(=O)N2CCc3ccccc32)cc1C (stereo not given),1000
20,COc1cn(CC(=O)Nc2ccc(C)c(Cl)c2)c(CN2CCN(C(C)=O)CC2)cc1=O,595
21,Cc1ccnc(Nc2nc(CC(=O)NCCc3cccs3)cs2)c1,581
22,Cc1ccc(S(=O)(=O)N2CCCOC2CNC(=O)C(=O)NCCCn2ccnc2)cc1 (stereo not given),558
